Tested on: bioengineered IAS rings
Assay: Isometric force (contraction/relaxation) of bioengineered IAS rings
Format: cell-based, rabbit
Procedure: Excitability and contractility of bioengineered IAS rings was measured using techniques adapted from previous work (Dennis et al., In Vitro Cellular & Developmental Biology Animal 36: 327-335, 2000. Dennis et al., American Journal of Physiology Cell Physiology 280: C288-C295, 2001). The diameter of the sphincter rings was measured and used to calculate cross-sectional area (CSA). The bioengineered sphincters were separated from their molds using forceps (FIG. 1 Panel E) and the minimum ring diameter was measured using a calibrated eyepiece and a 5× or 10× objective lens on an inverted microscope (Zeiss Axiovert 25, Thornwood, N.Y.). The cross section was circular, and therefore the CSA was calculated using the measured diameter. To measure the passive baseline force, the differentiation media in the plate containing the bioengineered sphincter was replaced with 37° C. Krebs solution (NaCl (119 mM), KCl (4.6 mM), NaHCO3 (15 mM), CaCl2 (1.5 mM), MgCl2 (1.2 mM), […], and glucose (11 mM)) and the plate was placed on a heated aluminum platform, which maintained a temperature of 37° C. until the testing was complete. For contractility measurements, one end of the bioengineered sphincter was anchored by a stainless steel pin (10 mm×0.1 mm diameter) to the PDMS substrate within the plate, while another stainless steel pin was bent in the shape of a hook and attached by canning wax to a force transducer (resolution of 1.4 μN and range of 2mN) as previously described (Dennis et al., In Vitro Cellular & Developmental Biology Animal 36: 327-335, 2000, Macpherson et al., J Physiol 500: 523-533, 1997) and as depicted in FIG. 1 (Panels F and G). The bioengineered sphincter was stretched approximately 50% of its resting length using a three-axis micromanipulator. The ring was allowed to sit for 20 minutes in order to reestablish a stable baseline level of force (Pb), which was measured as the average baseline passive force preceding stimulation. All force measurements were collected at 100 samples/second for 60 seconds and recorded using a computer with LabVIEW data acquisition software (National Instruments, Austin, Tex.). A median filter of rank 2 was applied to all raw force data before being stored to minimize digitization noise without causing a phase delay for rapidly changing forces. The peak isometric force (ΔP) was determined by subtracting the Pb from the total force values. Specific force (sΔP) was calculated by dividing ΔP by the CSA. Data analysis was done using LabVIEW and Microsoft Excel software programs. Each measurement was repeated at least three times and the mean value was recorded. Contractions were induced in the rings by the addition of acetylcholine. Dose-response relationships of acetylcholine were investigated in the range of 10^−6M to 10^−10M. Incremental doses of acetylcholine were added after the maximal response of the preceding concentration and the establishment of a new baseline. Relaxation response in the rings was induced by the addition of 8-Bromoadenosine 3′:5′-Cyclic Monophosphate (8-br-cAMP). Maximal relaxation was achieved after approximately 4 minutes and therefore relaxation measurements are collective of four consecutive 1-minute data recordings.

CC(=O)OCC[N+](C)(C)C [acetylcholine]
concentration at which the concentration-dependent contractile response reaches a plateau (10-fold incremental doses 10^−10 M to 10^−6 M): 10^−7 M
peak isometric force ΔP (10^−7 M acetylcholine, Krebs buffer, sustained for 4 minutes): 9.8±3.8 μN
maximal ΔP induced by acetylcholine stimulation (Krebs buffer): 33.7 μN

From US7368279B2, “Three dimensional bioengineered smooth muscle tissue and sphincters and methods therefor” (The Regents of The University of Michigan, priority 2004, dated 2008)
